The results in this text go back to ChEMBL document CHEMBL1151989, “Antineoplastic agents. 578. Synthesis of stilstatins 1 and 2 and their water-soluble prodrugs” (J Nat Prod, 2009).

Series [1] relates to MCF7. Kind of series: Antitumor activity against human MCF7 cells by sulforhodamine B assay. The class given is functional.
Series [2] has as its system SF-268. Kind of series: Antitumor activity against human SF268 cells by sulforhodamine B assay. The class given is functional. (Sulforhodamine B stains cellular protein and so reports cell mass.)
Series [3] relates to P388. Kind of series: In vitro growth inhibition against mouse P388 cells.
Series [4] relates to DU-145. Kind of series: Antitumor activity against human DU145 cells by sulforhodamine B assay. The class given is functional.
The subject of series [5] is KM-20L2. Kind of series: Antitumor activity against human KM20L2 cells by sulforhodamine B assay. Format: functional.
The subject of series [6] is NCI-H460. Kind of series: Antitumor activity against human NCI-H460 cells by sulforhodamine B assay. The class given is functional.
For series [7], the system named is BXPC-3. Kind of series: Antitumor activity against human BxPC3 cells by sulforhodamine B assay. The class given is functional.
Series [8] relates to SW-1736. Kind of series: Antitumor activity against human SW1736 cells by sulforhodamine B assay. The class given is functional.
Series [9] can be described thus: (§1) Antitumor activity against human KAT4 cells by sulforhodamine B assay. Format: functional. The following applies: KAT-4.
Series [10] deals with KAT-4. The description is as §1. Format: functional.
Series [11] in a line: Aqueous solubility of compound in water. The class given is physicochemical.

In brackets after ≈: the same amount, converted by molar mass.

As usually defined, the GI50 is the concentration that inhibits growth by half. Turning to `COc1cc(/C=C\c2ccc(OC)c(OP(=O)([O-])[O-])c2OP(=O)([O-])[O-])cc(OP(=O)([O-])[O-])c1OC.[Rb+].[Rb+].[Rb+].[Rb+].[Rb+].[Rb+]`, the 50% growth inhibitory concentration (GI50) in series [1] is 3.9 µg/mL; in series [2], 4.3 µg/mL; in series [4], 3.9 µg/mL; in series [5], more than 10 µg/mL; in series [6], 3.3 µg/mL; in series [7], more than 10 µg/mL. Further, the ED50 in [3] was found to be 0.26 µg/mL.

Consider `COc1cc(/C=C\c2ccc(OC)c(OP(=O)([O-])[O-])c2OP(=O)([O-])[O-])cc(OC)c1OC.[Na+].[Na+].[Na+].[Na+]`, for which the ED50 in [3] came to 0.3 µg/mL. Further, the GI50 in series [4] is 2.7 µg/mL; in [5], more than 10 µg/mL; in series [6], 3.3 µg/mL; in series [7], more than 10 µg/mL.

`COc1cc(/C=C\c2ccc(OC)c(OP(=O)([O-])[O-])c2OP(=O)([O-])[O-])cc(OP(=O)([O-])[O-])c1OC.[Zn+2].[Zn+2].[Zn+2]`: the GI50 is 3.5 µg/mL in [1]; 4.5 µg/mL in [2]; 4.6 µg/mL in [4]; 1.3 µg/mL in series [8]; more than 10 µg/mL in [5]; 3.5 µg/mL in [6]. For the same compound, the GI50 in series [9] and in series [7] was more than 10 µg/mL each time. In [3], this compound showed an ED50 of 0.15 µg/mL.

In turn, `COc1ccc(/C=C\c2cc(OC)c(OC)c(OC)c2)c(O)c1O` [COMBRETASTATIN A-1] gave an ED50 in series [3] of 0.3 µg/mL (≈ 0.903 µM). Further, the GI50 is 0.17 µg/mL (≈ 0.512 µM) in series [4], 0.74 µg/mL (≈ 2.23 µM) in series [6] and 4.4 µg/mL (≈ 13.2 µM) in series [7].

As for “Manganese Stilstatin 2 2',3,3'-O-Triphosphate”, the GI50 in [1] was more than 10 µg/mL; in [2], 3.6 µg/mL; in series [4] it was more than 10 µg/mL; in series [8], 1.7 µg/mL; in [5], more than 10 µg/mL; in series [6] it was 0.51 µg/mL. Further, the GI50 in series [10] and in [7] was more than 10 µg/mL in each case.

For the compound `COc1ccc(/C=C\c2cc(O)c(OC)c(OC)c2)c(O)c1O` [STILSTATIN 2], the GI50 in [1] worked out at 1.6 µg/mL (≈ 5.03 µM); in series [2], 1.6 µg/mL (≈ 5.03 µM); in series [4], 1.8 µg/mL (≈ 5.65 µM); in series [5] it was 1.9 µg/mL (≈ 5.97 µM); in [6], 1.5 µg/mL (≈ 4.71 µM); in series [7], 1.8 µg/mL (≈ 5.65 µM). In [3], the ED50 was 1.7 µg/mL (≈ 5.34 µM).

Turning to `COc1cc(/C=C\c2ccc(OC)c(OP(=O)([O-])[O-])c2OP(=O)([O-])[O-])cc(OP(=O)([O-])[O-])c1OC.[Ca+2].[Ca+2].[Ca+2]`, the GI50 worked out at 0.38 µg/mL in series [1]; 0.46 µg/mL in series [2]; 0.37 µg/mL in series [4]; 5.2 µg/mL in series [5]; 0.35 µg/mL in series [6]; 3.6 µg/mL in [7]. In series [3], this compound returned an ED50 of 0.14 µg/mL.

For the compound `COc1cc(/C=C\c2ccc(OC)c(OP(=O)([O-])[O-])c2OP(=O)([O-])[O-])cc(OP(=O)([O-])[O-])c1OC.[Na+].[Na+].[Na+].[Na+].[Na+].[Na+]`, the GI50 in series [1] was determined as 0.3 µg/mL; in series [2], 0.34 µg/mL; in series [4], 0.26 µg/mL; in [5], 3.1 µg/mL; in series [6], 0.3 µg/mL; in [7], 1.2 µg/mL. In series [3], the ED50 is 0.14 µg/mL.

On to `COc1ccc(/C=C\c2cc(OC)c(OC)c(OC)c2)cc1O` [COMBRETASTATIN A4], for which the ED50 in [3] amounted to 0.0009 µg/mL (≈ 0.00284 µM). Also, the GI50 in series [4] was found to be 0.0008 µg/mL (≈ 0.00253 µM); in [5] it was 0.34 µg/mL (≈ 1.07 µM); in [6], 0.0006 µg/mL (≈ 0.0019 µM); in series [7], 0.39 µg/mL (≈ 1.23 µM).

Regarding `COc1cc(/C=C\c2ccc(OC)c(O[Si](C)(C)C(C)(C)C)c2O[Si](C)(C)C(C)(C)C)cc(O[Si](C)(C)C(C)(C)C)c1OC`, the GI50 in series [1], in [2], in [4], in series [5], in series [6] and in series [7] was more than 10 µg/mL in each case. For the same compound, the ED50 in series [3] is more than 100 µg/mL.

For `COc1cc(/C=C\c2ccc(OC)c(OP(=O)([O-])[O-])c2OP(=O)([O-])[O-])cc(OP(=O)([O-])[O-])c1OC.[K+].[K+].[K+].[K+].[K+].[K+]`, the GI50 in series [1] is 0.15 µg/mL; in series [2] it was 0.3 µg/mL; in series [4], 0.22 µg/mL; in [5], 2.9 µg/mL; in series [6], 0.3 µg/mL; in series [7], 0.75 µg/mL. In series [3], this compound had an ED50 of 0.12 µg/mL.

In general, solubility refers to the dissolved amount per volume that the medium holds. Higher therefore signals much dissolved substance. As to `COc1ccc(/C=C\c2cc(OC)c(OC)c(OC)c2)cc1OP(=O)([O-])[O-].[Na+].[Na+]` [FOSBRETABULIN DISODIUM], in series [11], the solubility was found to be 20 mg/mL. The compound further gave an ED50 in series [3] of 0.0029 µg/mL. Further, the values for the GI50 in series [4], in series [6] and in [7] were 0.0007 µg/mL, 0.0004 µg/mL and 0.23 µg/mL, respectively.

On to `COc1cc(/C=C\c2ccc(OC)c(OP(=O)([O-])[O-])c2OP(=O)([O-])[O-])cc(OP(=O)([O-])[O-])c1OC.[Mg+2].[Mg+2].[Mg+2]`, for which the concentration for 50% growth inhibition (GI50) in series [1] is 0.5 µg/mL; in [2], 0.63 µg/mL; in [4], 0.42 µg/mL; in series [8], more than 10 µg/mL; in [5] it was less than 10 µg/mL; in series [6], 0.32 µg/mL. In addition, the results for the 50% growth inhibitory concentration (GI50) in series [9] and in series [7] were 4.7 µg/mL and 5.9 µg/mL, respectively. In [3], this compound came in with an ED50 of 0.064 µg/mL.

On to `COc1ccc(/C=C\c2cc(OC)c3c(c2)OCO3)cc1O` [Combretastatin A-2], for which the GI50 in series [1] came to 0.0042 µg/mL (≈ 0.014 µM); in series [4], 0.0054 µg/mL (≈ 0.018 µM); in series [5] it was 0.47 µg/mL (≈ 1.57 µM); in [6] it was 0.043 µg/mL (≈ 0.143 µM); in [7] it was 0.014 µg/mL (≈ 0.0466 µM). Further, the ED50 in series [3] turned out to be 0.016 µg/mL (≈ 0.0533 µM).

With `COc1cc(/C=C\c2ccc(OC)c(OP(=O)([O-])[O-])c2OP(=O)([O-])[O-])cc2c1OCO2.[Na+].[Na+].[Na+].[Na+]`, the GI50 is 3.4 µg/mL in [1]; 2.8 µg/mL in [2]; 2.5 µg/mL in series [4]; more than 10 µg/mL in series [5]; 2.8 µg/mL in series [6]; more than 10 µg/mL in [7]. The ED50 in series [3] was 1.4 µg/mL.

As for `COc1cc(/C=C\c2ccc(OC)c(OP(=O)([O-])[O-])c2OP(=O)([O-])[O-])cc(OP(=O)([O-])[O-])c1OC.[Li+].[Li+].[Li+].[Li+].[Li+].[Li+]`, the GI50 in series [1] was found to be 0.36 µg/mL; in [2], 0.76 µg/mL; in series [4] it was 0.82 µg/mL; in [5], 6.1 µg/mL; in series [6], 0.35 µg/mL; in series [7], 5.8 µg/mL. In [3], the ED50 turned out to be 0.028 µg/mL.

As for `COc1cc(/C=C\c2ccc(OC)c(O[Si](C)(C)C(C)(C)C)c2O[Si](C)(C)C(C)(C)C)cc2c1OCO2`, the GI50 in series [1], in series [2], in series [4], in series [5], in [6] and in [7] was more than 10 µg/mL each time. For the same compound, in [3], the ED50 is more than 10 µg/mL.

As for `COc1ccc(/C=C\c2cc(OC)c3c(c2)OCO3)cc1OP(=O)([O-])[O-].[Na+].[Na+]`, the GI50 in [1] was 0.045 µg/mL; in [4] it was 0.053 µg/mL; in series [5] it was 3.8 µg/mL; in [6] it was 0.41 µg/mL; in series [7], 2.1 µg/mL. Besides, the ED50 in series [3] came out at 0.025 µg/mL.

As to `COc1cc(/C=C\c2ccc(OC)c(OP(=O)([O-])[O-])c2OP(=O)([O-])[O-])cc2c1OCO2.[K+].[K+].[K+].[K+]`, the concentration for 50% growth inhibition (GI50) in series [1] is 0.39 µg/mL; in series [2], 0.65 µg/mL; in series [4] it was 0.93 µg/mL; in series [8], more than 10 µg/mL; in [5], more than 10 µg/mL; in series [6], 1.4 µg/mL. For the same compound, the concentration for 50% growth inhibition (GI50) is 9.6 µg/mL in [9] and 5.3 µg/mL in series [7]. The compound also came in with an ED50 in [3] of 0.17 µg/mL.

As for `COc1cc(/C=C\c2ccc(OC)c(OP(=O)([O-])[O-])c2OP(=O)([O-])[O-])cc2c1OCO2.[Li+].[Li+].[Li+].[Li+]`, the GI50 in [1] was 1.2 µg/mL; in series [2], 2.4 µg/mL; in series [4], 2.1 µg/mL; in [5], more than 10 µg/mL; in series [6], 2.7 µg/mL; in series [7] it was more than 10 µg/mL. Also, the ED50 in [3] is 0.3 µg/mL.
